Test results taken from patent US20200024278A1, “COMPOSITION COMPRISING ANTIBIOTIC COMPOUND AND AN HETEROCYCLIC COMPOUND AND THEIR USE IN PREVENTING OR TREATING BACTERIAL INFECTIONS” (MUTABILIS, priority 2016, published 2020).
Read-outs that look alike come from different tables or passages of the source.

How the values were obtained:
KPN UFR68 = assay: MIC, broth microdilution (CLSI), substance alone or ATB combined with compound at 4 or 8 μg/mL; type: cell-based, K. pneumoniae; settings: Klebsiella pneumoniae, substance alone
Summary of the method: (§1)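 Each strain received 5·10^5 CFU/mL of log-phase cells in ca-MHB over DMSO-spotted compound or compound-antibiotic combinations. After 16-20 h at 35° C, growth was scored visually.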

PAE 27853 [1] = assay: as above; type: cell-based, P. aeruginosa; settings: Pseudomonas aeruginosa, substance alone
Summary of the method: as §1

PAE 27853 [2] = type: cell-based, P. aeruginosa; settings: tntbc: Too numerous to be counted
Description: (§2) Method 4: Determination of the Spontaneous Mutation Frequency of the Compounds Alone and Combined with Antibiotics.
(§3) Bacterial isolates (Table 3) were grown overnight at 35° C. on TSA plates (Becton-Dickinson and Company) in ambient air. After 24 h of incubation, isolated bacterial colonies were added to cation-adjusted Mueller-Hinton broth (ca-MHB; Becton-Dickinson and Company) and cultured for approximately 6 h at 35° C. The pre-culture was stopped once bacteria have reached an OD600 nm of 0.5 for 200 μL. The bacterial suspension was centrifuged at 4000 rpm for 20 min. The supernatant was then discarded and the bacterial pellet was dissolved in ca-MHB to obtain 10^9 to 10^10 CFU/mL. Assays including Fosfomycin were supplemented with 25 μg/ml of Glucose-6-phosphate. 100 μL of the adjusted bacterial suspension were spread on agar plates containing different concentrations of the compounds of the present invention alone or combined with an antibacterial (Table 1). The plates were incubated for 24-48 h at 35° C. in ambient air. CFU were numerated on each agar plate containing compound. The number of resistant colonies obtained was divided by the starting inoculum to give the frequency of spontaneous resistance for a given incubation time (24 and 48 h).

PAE UFR48 = type: cell-based, P. aeruginosa; settings: tntbc: Too numerous to be counted
Description: as §2, §3

PAE UFR90 = type: cell-based, P. aeruginosa; settings: tntbc: Too numerous to be counted
Description: as §2, §3

Structure (SMILES)	MIC (KPN UFR68)	MIC (PAE 27853 [1])	Frequency of spontaneous resistance (PAE 27853 [2]; single agent at 4.MIC)	Frequency of spontaneous resistance (PAE 27853 [2]; single agent at 8.MIC)	Frequency of spontaneous resistance (PAE UFR48; single agent at 4.MIC)	Frequency of spontaneous resistance (PAE UFR48; single agent at 8.MIC)	Frequency of spontaneous resistance (PAE UFR90; single agent at 4.MIC)	Frequency of spontaneous resistance (PAE UFR90; single agent at 8.MIC)
CO/N=C(\C(=O)N[C@@H]1C(=O)N2C(C(=O)[O-])=C(C[N+]3(C)CCCC3)CS[C@H]12)c1csc(N)n1 [FEP, Cefepime]	> 256 µg/mL							
NCC[C@H](O)C(=O)N[C@@H]1C[C@H](N)[C@@H](O[C@H]2O[C@H](CN)[C@@H](O)[C@H](O)[C@H]2O)[C@H](O)[C@H]1O[C@H]1O[C@H](CO)[C@@H](O)[C@H](N)[C@H]1O [AN, Amikacin, reference compound]		2 µg/mL	6.6E−07	1.7E−07				
NC[C@H]1C=C(c2cnco2)[C@@H]2CN1C(=O)N2OS(=O)(=O)[O-].O=C(O)C(F)(F)F.[Na+] (relative stereo) [Example 1, sodium and 2,2,2-trifluoroacetate [trans-2-(azaniumylmethyl)-4-oxazol-5-yl-7-oxo-1,6-diazabicyclo[3.2.1]oct-3-en-6-yl] sulfate]		1 µg/mL	tntbc	tntbc	tntbc	tntbc	tntbc	tntbc
